{
  "source": "patent US20180353472A1",
  "about": "“UNIT DOSE FORMULATIONS FOR USE AS AN ANTI-FUGETACTIC AGENT” (THE GENERAL HOSPITAL CORPORATION d.b.a MASSACHUSETTS …, priority 2015, published 2018)",
  "key": {"[1]": {"test_system": "tumor that expresses high levels of CXCL12", "conditions": "mice, subcutaneous, dose between 0.000001% and 65% of the dose appropriate for recruiting stem cells, once a day for 5 days; assessed one to three days after final dose", "protocol": "Mice are injected with tumor cells (subcutaneous injection) from a tumor that expresses high levels of CXCL12 and a tumor is allowed to develop.\nOne to three days after the final AMD3100 dose, mice are assessed for tumor growth and the reduction or knock down of fugetaxis."}, "[2]": {"test_system": "breast cancer tumor which over-expresses CXCL12", "conditions": "human patient, dose between 0.000001% and 65% of the dose appropriate for recruiting stem cells, once a day for five days, optionally followed by a chemotherapeutic drug", "protocol": "A human patient with a breast cancer tumor which over-expresses CXCL12 is administered AMD3100 at a dose between 0.000001% and 65% of the dose appropriate for recruiting stem cells once a day for five days, optionally followed by a chemotherapeutic drug."}},
  "data": [
    {"smiles": "c1cc(CN2CCCNCCNCCCNCC2)ccc1CN1CCCNCCNCCCNCC1", "note": "[AMD3100, 1, 1′-[1,4-phenylenebis (methylene)]-bis-1,4,8,11-tetraazacyclotetradecane]", "values": [
      {"measurement": "anti-fugetactic effect (reduction or knock down of fugetaxis)", "setting": "[1]", "value": "will have an anti-fugetactic effect"},
      {"measurement": "T cell recruitment into the tumor", "setting": "[2]", "value": "increased T cell recruitment into the tumor"},
      {"measurement": "patient survival", "setting": "[2]", "value": "increase in patient survival"},
      {"measurement": "tumor volume", "setting": "[2]", "value": "decrease in tumor volume"}
    ]}
  ]
}
